Data published in ChEMBL document CHEMBL1201862, “PubChem BioAssay data set” (2004).
Active and inactive are the calls of the source.

Experiments:
[1] = viability inhibitors of stage V gametocytes – luminescence, dose response (AID 1117278); assay type: functional, cell-based;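 also: gametocytes exposed to compound for 24 hours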
[2] = viability loss in human Jurkat cells – cell-based, luminescence, cytotoxicity control for P. falciparum gametocyte viability project, dose response (AID 1117277); assay type: functional;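 also: potency reflects loss of cellular ATP meaning fewer viable cells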
[3] = Luminescence Cell-Based Dose Confirmation to Identify Activators of 5'UTR Stem-Loop Driven Alpha-Synuclein mRNA Translation in H4 Neuroglioblastoma Cells. [Related pubchem assays: 1829 (Project Summary), 1814 (Primary HTS)]; assay type: functional
[4] = Luminescence Cell-Based Dose Response to Identify Activators of 5'UTR Stem-Loop Driven Prion Protein mRNA Translation in H4-C Neuroglioblastoma Cells. [Related pubchem assays: 1829 (Project Summary), 1814 (Primary HTS)]; assay type: functional
[5] = Luminescence Cell-Based Dose Confirmation HTS to Identify Activators of 5'UTR Stem-Loop Driven Alpha-Synuclein mRNA Translation in H4 Neuroglioblastoma Cells. [Related pubchem assays: 1829 (Project Summary), 1814 (Primary HTS)]; assay type: functional
[6] = Luminescence Cell-Based Dose Response HTS to Identify Activators of Luciferase Translation or Activity in H4 […] Cells. [Related pubchem assays: 1829 (Project Summary), 1814 (Primary HTS)]; assay type: functional
[7] = Luminescence Cell-Based Dose Response to Identify Activators of Luciferase Translation or Activity in H4-C Neuroglioblastoma Cells. [Related pubchem assays: 1829 (Project Summary), 1814 (Primary HTS)]; assay type: functional
[8] = test system: H4; assay: Luminescence Cell-Based Dose Response HTS to Identify Activators of 5'UTR Stem-Loop Driven Prion Protein mRNA Translation in H4 Neuroglioblastoma Cells. [Related pubchem assays: 1829 (Project Summary), 1814 (Primary HTS)]; assay type: functional; conditions: Homo sapiens
[9] = biological target: Kallikrein-7 (Homo sapiens, UniProt P49862); assay: Fluorescence Intensity-based biochemical primary high throughput dose response assay to identify activators of kallikrein-7 (K7) zymogen.
Kallikrein-7, sequence (P49862 whole entry): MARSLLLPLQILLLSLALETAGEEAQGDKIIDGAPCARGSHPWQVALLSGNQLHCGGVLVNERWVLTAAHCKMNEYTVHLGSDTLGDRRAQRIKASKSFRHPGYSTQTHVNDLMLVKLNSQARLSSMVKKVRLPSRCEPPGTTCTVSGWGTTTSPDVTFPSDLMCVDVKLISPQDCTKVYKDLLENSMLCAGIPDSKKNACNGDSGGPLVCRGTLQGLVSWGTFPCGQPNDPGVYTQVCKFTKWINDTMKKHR

[10] = biological target: T1, Replicative DNA helicase DnaB (Mycobacterium tuberculosis, UniProt P9WMR3); assay: DnaB intein splicing inhibitors, dose response, biochemical, cell-free fluorescence (AID 449749); assay type: functional
T1 sequence (P9WMR3 whole entry): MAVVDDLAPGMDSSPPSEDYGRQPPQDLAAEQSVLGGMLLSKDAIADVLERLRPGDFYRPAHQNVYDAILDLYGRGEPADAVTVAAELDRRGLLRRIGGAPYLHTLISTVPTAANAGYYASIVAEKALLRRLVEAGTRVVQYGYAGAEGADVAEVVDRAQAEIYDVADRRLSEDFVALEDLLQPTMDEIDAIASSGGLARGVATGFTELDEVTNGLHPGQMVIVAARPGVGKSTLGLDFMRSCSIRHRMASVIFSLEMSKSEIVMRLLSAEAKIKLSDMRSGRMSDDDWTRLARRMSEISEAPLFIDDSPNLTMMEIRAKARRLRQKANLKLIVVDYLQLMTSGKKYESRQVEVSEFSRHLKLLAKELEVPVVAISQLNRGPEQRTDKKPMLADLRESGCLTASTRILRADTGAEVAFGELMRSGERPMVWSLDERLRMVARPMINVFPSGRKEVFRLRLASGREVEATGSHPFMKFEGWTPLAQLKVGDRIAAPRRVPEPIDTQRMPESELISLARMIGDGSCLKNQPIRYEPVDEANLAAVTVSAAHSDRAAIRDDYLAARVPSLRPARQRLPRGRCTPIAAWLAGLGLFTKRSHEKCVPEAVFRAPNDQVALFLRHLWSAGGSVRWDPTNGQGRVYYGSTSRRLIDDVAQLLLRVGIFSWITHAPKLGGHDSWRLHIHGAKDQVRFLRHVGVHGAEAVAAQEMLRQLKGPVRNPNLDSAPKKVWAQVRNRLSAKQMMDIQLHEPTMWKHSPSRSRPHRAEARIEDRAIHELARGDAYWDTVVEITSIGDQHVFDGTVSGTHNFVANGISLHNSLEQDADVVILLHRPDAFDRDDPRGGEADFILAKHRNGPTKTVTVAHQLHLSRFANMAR

[11] = biological target: T2, Protein RecA (Mycobacterium tuberculosis, UniProt P9WHJ3); assay: Fluorescence Cell-Free Homogeneous Dose Retest to Identify Inhibitors of RecA-Intein Splicing Activity. [Related pubchem assays (depositor defined):AID2097, AID2223, AID489010, AID492950]; assay type: functional
T2 sequence (P9WHJ3 whole entry): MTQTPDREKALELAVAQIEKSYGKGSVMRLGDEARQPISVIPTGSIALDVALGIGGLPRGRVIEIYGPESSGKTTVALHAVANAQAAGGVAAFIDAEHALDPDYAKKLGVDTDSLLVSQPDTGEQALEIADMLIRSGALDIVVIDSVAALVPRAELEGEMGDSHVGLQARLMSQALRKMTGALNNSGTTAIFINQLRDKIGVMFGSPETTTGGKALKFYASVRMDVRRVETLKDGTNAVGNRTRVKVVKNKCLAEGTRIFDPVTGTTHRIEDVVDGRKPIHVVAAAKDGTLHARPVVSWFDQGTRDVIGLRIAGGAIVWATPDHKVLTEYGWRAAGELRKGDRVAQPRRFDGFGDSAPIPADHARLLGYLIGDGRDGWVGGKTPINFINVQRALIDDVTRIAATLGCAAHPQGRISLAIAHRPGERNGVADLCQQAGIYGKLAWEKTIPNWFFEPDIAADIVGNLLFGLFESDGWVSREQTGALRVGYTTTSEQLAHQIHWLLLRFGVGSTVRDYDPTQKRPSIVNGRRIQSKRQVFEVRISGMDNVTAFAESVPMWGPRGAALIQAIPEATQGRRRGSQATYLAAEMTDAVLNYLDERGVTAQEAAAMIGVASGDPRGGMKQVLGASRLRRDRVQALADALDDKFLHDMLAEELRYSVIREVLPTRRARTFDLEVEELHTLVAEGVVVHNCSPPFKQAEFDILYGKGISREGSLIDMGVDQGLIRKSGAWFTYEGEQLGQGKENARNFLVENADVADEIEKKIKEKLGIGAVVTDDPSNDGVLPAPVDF

[12] = biological target: Cytochrome P450 2C19 (Homo sapiens, UniProt P33261); assay: Cytochrome panel assay with activity outcomes. Panel member name: p450-cyp2c19 Compounds with AC50 equal or less than 10 uM are considered active; assay type: functional; conditions: read-out: AC50
Cytochrome P450 2C19, sequence (P33261 whole entry): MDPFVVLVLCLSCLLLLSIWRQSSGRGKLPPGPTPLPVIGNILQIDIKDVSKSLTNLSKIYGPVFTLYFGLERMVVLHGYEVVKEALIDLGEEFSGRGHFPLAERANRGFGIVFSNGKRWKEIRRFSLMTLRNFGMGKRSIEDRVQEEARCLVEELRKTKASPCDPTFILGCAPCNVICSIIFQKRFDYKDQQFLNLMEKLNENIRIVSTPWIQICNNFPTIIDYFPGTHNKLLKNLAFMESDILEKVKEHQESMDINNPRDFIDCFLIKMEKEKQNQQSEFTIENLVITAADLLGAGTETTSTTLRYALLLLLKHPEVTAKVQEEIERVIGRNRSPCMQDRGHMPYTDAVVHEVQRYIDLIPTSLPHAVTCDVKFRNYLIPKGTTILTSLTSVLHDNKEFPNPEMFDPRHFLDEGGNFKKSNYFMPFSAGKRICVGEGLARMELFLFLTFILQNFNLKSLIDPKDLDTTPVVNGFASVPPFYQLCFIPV

[13] = HEK-293T viability loss after treatment – luminescence, T-cell screen hits, cytotoxicity control for TCR NF-kB inhibitor project, dose response (AID 489026); assay type: functional, cell-based;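 also: cells exposed to compound about 14 hours before the viability readout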
[14] = test system: INS1; assay: INS-1E survival protection against cytokine death – cell-based, luminescence, retest, dose response (AID 449756); assay type: functional; conditions: Rattus norvegicus;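 also: cell death triggered by IL-1 beta plus TNF-alpha plus IFN-gamma mixture; protective hits raise ATP signal compared with cytokine alone wells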
[15] = loss of viability in HepG2 cells – cell-based, CellTiter-Glo, cherry-picked, cytotoxicity control for Shn3 inhibitor project, dose response (AID 624134); assay type: functional
[16] = NIH3T3 cell viability loss – ATP luminescence, mouse fibroblasts, counter-screen, dose response (AID 2010); assay type: functional, cell-based;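 also: cells exposed to compound for about 90 hours before reading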
[17] = biological target: T3, COUP transcription factor 2 (Homo sapiens, UniProt P24468); assay: Luminescence-based cell-based high throughput dose response assay to identify inhibitors of COUP-TFII (NR2F2).; assay type: functional;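 also: HEK293 cells transiently cotransfected with COUP-TFII expression vector and reporter; luciferase reporter luminescence driven by COUP-TFII from the pX2-168 reporter plasmid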
T3 sequence (P24468 whole entry): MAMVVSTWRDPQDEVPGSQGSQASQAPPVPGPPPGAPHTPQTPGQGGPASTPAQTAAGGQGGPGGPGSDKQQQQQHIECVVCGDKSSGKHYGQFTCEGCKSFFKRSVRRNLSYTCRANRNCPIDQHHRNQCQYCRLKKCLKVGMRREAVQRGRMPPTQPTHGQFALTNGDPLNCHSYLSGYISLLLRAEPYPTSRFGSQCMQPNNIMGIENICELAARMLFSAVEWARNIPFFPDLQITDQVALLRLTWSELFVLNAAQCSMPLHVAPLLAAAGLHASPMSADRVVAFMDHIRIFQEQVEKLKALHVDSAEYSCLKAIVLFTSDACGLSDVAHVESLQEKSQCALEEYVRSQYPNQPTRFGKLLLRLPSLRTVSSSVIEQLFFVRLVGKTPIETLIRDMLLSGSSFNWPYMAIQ

[18] = Trypanosoma cruzi growth suppression in host cells – NIH3T3 host cells, beta-gal luminescence, confirmation (AID 2044); assay type: functional, cell-based;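 also: intracellular parasites grown in NIH/3T3 mouse fibroblasts as host cells; luminescent beta-galactosidase reporter signal from transgenic T. cruzi replicating inside host cells; inhibitors lower the luminescence signal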
[19] = reduction of Shn3 3'UTR-driven luciferase in osteoblasts – cell-based, Clone20 osteoblasts, firefly luciferase, cherry-picked, dose response (AID 624132); assay type: functional;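 also: firefly luciferase luminescence from reporter carrying the Shn3 3'UTR in osteoblasts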
[20] = non-specific 3'UTR reporter inhibition in Clone20-Shn3RL – cell-based, Renilla luciferase, cherry-picked, counter-screen for Shn3 inhibitor project, dose response (AID 624133); assay type: functional
[21] = HIV-1 Vif–A3G interaction blockers – biochemical, TR-FRET, GST-Vif 1-94, biotin-A3G peptide, dose response retest, primary screen (AID 1117319); assay type: functional;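 also: TR-FRET signal of purified GST-Vif binding a biotinylated A3G peptide; inhibitors lower the FRET signal by blocking Vif and A3G binding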
[22] = HIV-1 AD8 envelope cell-cell fusion blockers – cherry-pick, dose response (AID 652062); assay type: functional, cell-based;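 also: luciferase signal from cell-cell fusion driven by HIV-1 clade B AD8 Env; potency is for inhibitors of fusion seen as a drop in luminescence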
[23] = blockers of HIV-1 ZM109 envelope-driven cell-cell fusion – HeLa effector, CEM target cells, luciferase, cherry-pick, dose response (AID 652058); assay type: functional, cell-based;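 also: luciferase signal from HIV-1 Env mediated cell-cell fusion of effector and target cells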
[24] = viability loss in CEM21 cells – cell-based, CellTiter-Glo luminescence, cherry-picked, cytotoxicity control for viral fusion inhibitor project, dose response (AID 652042); assay type: functional;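 also: potency for signal decrease meaning cytotoxicity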
[25] = general cell-killing toxicity readout – plate reader, dry powder samples, cytotoxicity control for PAX8 inhibitor project, dose response (AID 743021); assay type: functional, cell-based
[26] = off-target signal loss in HeLa-CEM21 co-culture – HeLa F-luc CTL cells, cherry-picked, counter-screen for HIV-1 Env fusion inhibitor project, dose response (AID 652040); assay type: functional, cell-based;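 also: potency for signal decrease marking cytotoxic or nonspecific inhibition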
[27] = biological target: Paired box protein Pax-8 (Homo sapiens, UniProt Q06710); assay: PAX8 transcriptional activity inhibition in RMG-I – RMG-I cells, luciferase, cherry-pick, dose response (AID 687027); assay type: functional, cell-based;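 also: luciferase reporter driven by Pax8 target thyroperoxidase promoter measured by SteadyGlo luminescence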
Paired box protein Pax-8, sequence (Q06710 whole entry, the tested form may be a part): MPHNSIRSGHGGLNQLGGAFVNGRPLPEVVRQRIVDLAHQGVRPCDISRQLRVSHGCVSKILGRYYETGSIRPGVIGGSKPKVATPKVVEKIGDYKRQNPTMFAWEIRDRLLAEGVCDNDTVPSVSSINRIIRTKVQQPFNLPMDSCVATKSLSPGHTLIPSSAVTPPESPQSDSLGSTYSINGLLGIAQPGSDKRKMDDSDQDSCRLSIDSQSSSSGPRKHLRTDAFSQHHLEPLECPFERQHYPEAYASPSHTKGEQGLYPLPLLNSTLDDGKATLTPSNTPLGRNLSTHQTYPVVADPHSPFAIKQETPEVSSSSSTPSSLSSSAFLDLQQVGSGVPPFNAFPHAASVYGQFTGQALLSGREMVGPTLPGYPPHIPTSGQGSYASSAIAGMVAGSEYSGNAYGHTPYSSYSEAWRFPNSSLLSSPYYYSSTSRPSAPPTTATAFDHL

[28] = blockers of HIV-1 envelope-mediated cell-cell fusion – cherry-pick, dose response (AID 652057); assay type: functional, cell-based
[29] = Luminescence Cell-Based Dose Response HTS to Identify Inhibitors of 5'UTR Stem-Loop Driven Prion Protein mRNA Translation in H4 Neuroglioblastoma Cells. [Related pubchem assays: 1827 (Project Summary), 1813 (Primary HTS)]; assay type: functional
[30] = alpha-synuclein stem-loop luciferase translation blockers – H4 neuroglioma cells, luminescence, confirmation (AID 1988); assay type: functional, cell-based
[31] = luciferase reporter signal suppression in cells – H4 neuroglioma cells, luminescence, dose response (AID 1990); assay type: functional, cell-based
[32] = Dd2 malaria parasite growth inhibition potency – SYBR Green, dry powder samples, dose response (AID 1159566); assay type: functional, cell-based;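 also: potency for growth inhibition with lower SYBR green DNA signal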
[33] = growth inhibition of yeast DHODH-expressing 3D7 parasites – SYBR Green, dry powder samples, dose response (AID 1159570); assay type: functional, cell-based;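 also: parasite growth measured after 72 hours of compound exposure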
[34] = P. falciparum Dd2 growth inhibitors, dose response, SYBR Green, cherry-picked samples (AID 1159567); assay type: functional, cell-based
[35] = growth inhibition of PfATP4-mutant resistant parasites – NITD609-resistant line, SYBR Green, dry powder, dose response (AID 1159571); assay type: functional, cell-based;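 also: parasites synchronized at ring stage by sorbitol before testing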

## CCSc1n[nH]c2nc3nc4c(C)cccc4c-3nn12
[1]
  IC50: > 109 µM (inactive)
[2]
  IC50: > 83.3 µM (inactive)

## O=C(Nc1nc2ccc([N+](=O)[O-])cc2s1)c1ccco1
[1]
  IC50: > 109 µM (inactive)
[2]
  IC50: > 83.2 µM (inactive)

## COc1ccc(-c2csc(N3CCSCC3)n2)cc1
[3]
  EC50: 0.579 µM (active)
[4]
  EC50: 0.887 µM (active)
[5]
  EC50: 1.64 µM (active)
[6]
  EC50: 3.17 µM (active)
[7]
  EC50: 0.375 µM (active)
[8]
  EC50: 0.112 µM (active)

## Cc1cc(C)cc(Oc2coc3cc(OC(=O)c4cccs4)ccc3c2=O)c1
[9]
  EC50: 66.8 µM (inactive)
[10]
  AC50: 21.2 µM (active)
[11]
  EC50: 18.8 µM (active)
[12]
  AC50: 2.82 µM (inconclusive)

## COc1ccc(-c2csc(NC(=O)C3CCN(c4ncnc5sc(C)c(C)c45)CC3)n2)cc1OC
[13]
  IC50: > 80 µM (inactive)
[14]
  AC50: 3.6 µM (active)
[15]
  AC50: 1.86 µM (active)
[16]
  EC50: > 60 µM (not active)
[17]
  IC50: 3.82 µM (active)
[18]
  EC50: 1.37 µM (active)
[19]
  AC50: 1.42 µM (active)
[20]
  AC50: 0.857 µM (active)

## CCOC(=O)N1CCN(C(=O)C2CCCN(S(=O)(=O)c3ccc(C)cc3)C2)CC1 (configuration not stated)
[21]
  IC50: > 100 µM (active)

## CC(=NNc1ccc2ccccc2n1)c1ccccn1
[22]
  AC50: 5 µM (active)
[23]
  AC50: 10.7 µM (active)
[24]
  AC50: 0.399 µM (active)
[25]
  AC50: 59.5 µM (active)
[26]
  AC50: 8.41 µM (active)
[27]
  AC50: 2.27 µM (active)
[28]
  AC50: 3.13 µM (active)

## COc1cccc(N2CCN(S(=O)(=O)c3ccc4[nH]c(-c5ccccc5)nc4c3)CC2)c1
[29]
  EC50: > 120 µM (not active)
[30]
  EC50: > 120 µM (not active)
[1]
  IC50: > 109 µM (inactive)
[31]
  EC50: 29.8 µM (active)
[2]
  IC50: > 83.3 µM (inactive)

## C[C@@H]1CN([C@H](C)CO)C(=O)c2cc(C#CCc3ccccc3)cnc2O[C@H]1CN(C)C(=O)C1CCC1
[32]
  AC50: 1.88 µM (active)
[33]
  AC50: 2.1 µM (active)
[34]
  AC50: 2.18 µM (active)
[35]
  AC50: 1.54 µM (active)

## N#C/C(=C/c1ccc(-c2ccc(S(N)(=O)=O)cc2)o1)C(=O)Nc1ccccc1
[9]
  EC50: 9.54 µM (active)

## COc1ccccc1C1C=C(c2ccc(C)cc2)Nc2nnnn21 (configuration not stated)
[9]
  EC50: 23.5 µM (inactive)
[21]
  IC50: > 100 µM (active)
